Literature values in patent US10251778B2, “Therapeutics dispensing device and methods of making same” (Baylor College of Medicine, priority 2012, dated 2019).
Structures can show the parent of a compound that is named as a salt. Blank lines part the entries; values can stand above or below the compound they belong to.

What was measured:
[1] = Acrylate Polymer Nanosuspensions
[2] = tested on: human cytomegalovirus (HCMV); conditions: Albumin Nanoparticles
[3] = not given; remark: listed apart in the source
[4] = in vitro
[5] = Poly(butyl)-cyano acrylate Nanopartilces

SMILES: CC(=O)Nc1nnc(S(N)(=O)=O)s1 [Acetazolamide]
Result (IOP) (Liposomes): Produced a marked decrease in IOP

Result (drug levels in aqueous humour) [1]: Increased drug levels in aqueous humour
SMILES: CC(C(=O)O)c1ccc(-c2ccccc2)c(F)c1 (stereo not drawn) [Flurbiprofen]

SMILES: Nc1nc2c(ncn2COC(CO)CO)c(=O)[nH]1 [GCV]
Result (antiviral activity) [2]: Increased antiviral aciivity against human

SMILES: CC[C@@H]1C(=O)OC[C@@H]1Cc1cncn1C [Pilocarpine HCl]
Result (response and ocular bioavailability) ([3]; Liposomes): Increased mitotic response and ocular

SMILES: CC[C@@H]1C(=O)OC[C@@H]1Cc1cncn1C [Pilocarpine nitrate]
Result (miotic activity) ([3]; Dendrimers): Prolonged miotic activity

SMILES: CC[C@@H]1C(=O)OC[C@@H]1Cc1cncn1C [Pilocarpine]
Decreased IOP (Microemulsions): Decreased IOP by 25%
decrease in IOP [5]: in IOP by 22%
Result (response) [3, 5]: Enhanced mitotic response and decrease

transcorneal penetration relative to the ionized form [4]: 2-3 times
SMILES: CC[C@@H]1C(=O)OC[C@@H]1Cc1cncn1C [pilocarpine base, pilocarpine]
